# Article PMC13266999, “Designing Antibiotics with Inherent Resistance to Efflux as a Strategy to Revive Discovery against Multidrug-Resistant Pathogens” (Journal of Medicinal Chemistry, 2026)
# Where two headings read alike, the source gives them in different places.
# What was measured:
# Acinetobacter baumannii = experiment: MIC (microbroth dilution); format: cell-based; conditions: read-out: MIC
# Summary of the method: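 Microbroth dilution in tryptic soy broth; Streptococcus spp. in cation-adjusted Mueller Hinton broth with 2.5% lysed horse blood, inocula from overnight stationary-phase cultures. MIC is lowest concentration without visible growth, OD600 read. Parallel MICs run with 30 μg/mL polymyxin B nonapeptide (final) as outer-membrane permeabilizer.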
# S. aureus [1] = experiment: Mutation frequency and agar MIC; format: cell-based
# Description: (§1) Mutation frequencies were performed on solid media at supra-inhibitory concentrations. First, the agar MIC was performed to account for any issues in solubility of compounds in solid media. Agar plates were prepared with 2-fold dilutions of compound.
# (§2) For the mutation frequency assay, bacteria from an overnight culture were grown to mid exponential phase in liquid broth, then 100 μL was spread onto an agar plate containing compound at concentrations above the agar MIC. A Miles-Misra was also conducted on an antibiotic-free agar plate to determine the CFU/mL of the starting population. […] The mutation frequency was calculated by dividing the number of colonies on supra inhibitory con-centration plates by the starting population.
# A. baumannii = experiment: Mutation frequency and agar MIC; format: cell-based; conditions: A118
# Description: as §1, §2
# E. coli = experiment: Mutation frequency and agar MIC; format: cell-based; conditions: NCTC 12241
# Description: as §1, §2
# S. aureus [2] = experiment: MIC (microbroth dilution); format: cell-based, Staphylococcus aureus; conditions: for MIC: read-out: MIC
# Summary of the method: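 Overnight stationary-phase cultures back-diluted and tested by broth microdilution with 2-fold compound series. MIC is lowest concentration with no visible growth, with OD600 also read. Separate runs included polymyxin B nonapeptide at 30 μg/mL final as outer-membrane permeabilizer.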
structure (smiles),measurement,setting,value
"Cc1cc(C)nc(N[C@@H]2CCN(c3c(F)cc4c(=O)c(C(=O)O)cn5c4c3OC[C@@H]5C)C2)n1 [Compound 50, (S)-10-((R)-3-((4,6-Dimethylpyrimidin-2-yl)amino)pyrrolidin-1-yl)-9-fluoro-3-methyl-7-oxo-2,3-dihydro-7H-[1,4]oxazino[2,3,4-ij]quinoline-6-carboxylic acid]",MIC,"Acinetobacter baumannii; Acinetobacter baumannii, 86, oxa23",8 µg/mL
same,MIC,"Acinetobacter baumannii; Acinetobacter baumannii, 96, oxa23",4 µg/mL
same,MIC,"Acinetobacter baumannii; Acinetobacter baumannii, 113, oxa23",4 µg/mL
same,MIC,"Acinetobacter baumannii; Acinetobacter baumannii, A118",≤ 0.06 µg/mL
same,MIC,"Acinetobacter baumannii; Acinetobacter baumannii, A318",16 µg/mL
same,MIC,"Acinetobacter baumannii; Acinetobacter baumannii, A319",4 µg/mL
same,MIC,"Acinetobacter baumannii; Acinetobacter baumannii, A600 colR",4 µg/mL
same,MIC,"Acinetobacter baumannii; Acinetobacter baumannii, A601 colS",0.125 µg/mL
same,MIC,"Acinetobacter baumannii; Acinetobacter baumannii, ATCC17978, ATCC 17978",0.25 µg/mL
same,MIC,"Acinetobacter baumannii; Acinetobacter baumannii, BAA1709, BAA-1709",0.125 µg/mL
same,MIC,"Acinetobacter baumannii; Acinetobacter baumannii, BAA1710, BAA-1710 (AYE)",8 µg/mL
same,MIC,"Acinetobacter baumannii; Acinetobacter baumannii, NCTC10303, NCTC 10303",0.125 µg/mL
same,MIC,"Acinetobacter baumannii; Acinetobacter baumannii, NCTC13302, NCTC 13302, oxa24",4 µg/mL
same,MIC,"Acinetobacter baumannii; Acinetobacter baumannii, NCTC13424, NCTC 13424, oxa23",> 64 µg/mL
same,MIC,"Acinetobacter baumannii; Acinetobacter baumannii, T strain",8 µg/mL
same,MIC,"Acinetobacter baumannii; Acinetobacter baumannii, UKA1, oxa23",4 µg/mL
same,MIC,"Acinetobacter baumannii; Acinetobacter baumannii, UKA2, Low resistance",8 µg/mL
same,MIC,"Acinetobacter baumannii; Acinetobacter baumannii, UKA9",0.125 µg/mL
same,MIC,"Acinetobacter baumannii; Acinetobacter baumannii, UKA12, oxa23",4 µg/mL
same,MIC,"Acinetobacter baumannii; Acinetobacter baumannii, UKA13, oxa23",4 µg/mL
same,MIC,"Acinetobacter baumannii; Acinetobacter baumannii, UKA15, oxa23",4 µg/mL
same,MIC,"Acinetobacter baumannii; Acinetobacter baumannii, UKA19",0.5 µg/mL
same,MIC,"Acinetobacter baumannii; Acinetobacter baumannii, W1",8 µg/mL
same,Agar MIC,S. aureus [1]; ATCC 9144,0.03 µg/mL
same,Agar MIC,S. aureus [1]; NCTC 13616,0.5 µg/mL
same,Agar MIC,A. baumannii,0.25 µg/mL
same,Agar MIC,E. coli,0.25 µg/mL
same,fold improvement in activity compared to 46,S. aureus [2],2–8 fold
same,"fold difference in MIC, SA-1199B vs SA-1199",S. aureus [2]; NorA-overexpressing vs WT,no difference
same,MIC,"S. aureus [2]; Staphylococcus aureus, 1199, + 4% albumin",0.06 µg/mL
same,MIC,"S. aureus [2]; Staphylococcus aureus, 1199b, + 4% albumin",0.125 µg/mL
same,MIC,"S. aureus [2]; Staphylococcus aureus, ATCC6538P, ATCC 6538P",0.03 µg/mL
same,MIC,"S. aureus [2]; Staphylococcus aureus, ATCC9144, ATCC 9144, + 4% albumin",0.125 µg/mL
same,MIC,"S. aureus [2]; Staphylococcus aureus, ATCC9144, ATCC 9144",≤ 0.004 µg/mL
same,MIC,"S. aureus [2]; Staphylococcus aureus, ATCC10390, ATCC 10390",0.03 µg/mL
same,MIC,"S. aureus [2]; Staphylococcus aureus, ATCC13709, ATCC 13709",0.03 µg/mL
same,MIC,"S. aureus [2]; Staphylococcus aureus, ATCC19636, Smith, ATCC 19636",0.03 µg/mL
same,MIC,"S. aureus [2]; Staphylococcus aureus, ATCC27660, ATCC 27660",0.03 µg/mL
same,MIC,"S. aureus [2]; Staphylococcus aureus, ATCC29213, ATCC 29213 + 50% serum",1 µg/mL
same,MIC,"S. aureus [2]; Staphylococcus aureus, ATCC29213, ATCC 29213",0.03 µg/mL
same,MIC,"S. aureus [2]; Staphylococcus aureus, ATCC 33591 / MRSA, MRSA (ATCC 33591)",0.03 µg/mL
same,MIC,"S. aureus [2]; Staphylococcus aureus, ATCC 33592 / MRSA, MRSA (ATCC 33592)",0.03 µg/mL
same,MIC,"S. aureus [2]; Staphylococcus aureus, ATCC33594, ATCC 33594",0.03 µg/mL
same,MIC,"S. aureus [2]; Staphylococcus aureus, ATCC49230, ATCC 49230",0.03 µg/mL
same,MIC,"S. aureus [2]; Staphylococcus aureus, MRSA / NRS 17 / VISA, VISA MRSA (NRS17)",1 µg/mL
same,MIC,"S. aureus [2]; Staphylococcus aureus, MRSA / NRS 22 / USA600, USA600 MRSA GISA (NRS22)",4 µg/mL
same,MIC,"S. aureus [2]; Staphylococcus aureus, MRSA / NRS 71, MRSA (NRS71)",1 µg/mL
same,MIC,"S. aureus [2]; Staphylococcus aureus, MRSA / NRS 100, MRSA (COL; NRS100)",0.03 µg/mL
same,MIC,"S. aureus [2]; Staphylococcus aureus, MRSA / NRS 119, MRSA Linezolid-R (NRS119)",1 µg/mL
same,MIC,"S. aureus [2]; Staphylococcus aureus, MRSA / NRS 123 / USA400, USA400 MRSA (NRS123)",0.03 µg/mL
same,MIC,"S. aureus [2]; Staphylococcus aureus, MRSA / NRS 127, LZD-NS MRSA (NRS127)",4 µg/mL
